Source: patent US20130142819A1, “LEISHMANICIDAL FORMULATION AND ITS USE” (priority 2010, published 2013)

Columns and labels:
Assay in all cases: Leishmanicidal activity, MTT viability assay, promastigotes
Type in all cases: cell-based
Conditions in all cases: 50 μg/mL; average ± standard deviation
[1] = system: stationary phase promastigotes of L. amazonensis
Method: (§1) In a cell culture plate of 96 wells (Nunc, Nunclon®), 4×10^5 promastigote and amastigote-like forms of species Leishmania amazonensis, L. major and L. chagasi were incubated with 25 to 200 μg/mL of the aqueous extract of the fungus in RPMI-PR medium for a final volume of 100 μL, for 24 h at 25° C. Then it was added 50 uL of MTT reagent (Thiazoly Blue Tetrazolium Bromide 98%; in stock concentration of 5 mg/mL) and the plate was incubated for 4 hours at 25° C. The cells were analyzed on a microscope to verify the formation of formazan crystals. Shortly after it was added 60 μL of a SDS 10%/HCL 0.1 M solution to solubilize formazan crystals and the plate was incubated for 18 h. The absorbance readings were then performed using a spectrophotometer at a wavelength of 570 nanometers (nm) (see FIGS. 1 and 2; Table 1 and 2).
(§2) Through the absorbance readings collected in experiments, Tables 1 and 2 were generated to represent the percentage of leishmanicidal activity of aqueous extract against the three Leishmania species tested in two manners. The calculation of the percentage of death of the parasites was based in the formula below, using the absorbance readings: […]
(§3) The experiment was conducted by the cellular viability protocol by impregnating the MTT reagent and the concentration of 50 μg/mL of the aqueous extract of the fungus and the purified fractions were used. […]

[2] = system: stationary phase promastigotes of L. chagasi
Method: as §1, §2, §3

[3] = system: stationary phase promastigotes of L. major
Method: as §1, §2, §3

SMILES: C[C@@H]1[C@H](O)[C@@H](C)/C=C/C=C/C=C/C=C/C=C/C=C/C=C/[C@H](O[C@@H]2O[C@H](C)[C@@H](O)[C@H](N)[C@@H]2O)C[C@@H]2O[C@](O)(C[C@@H](O)C[C@@H](O)[C@H](O)CC[C@@H](O)C[C@@H](O)CC(=O)O[C@H]1C)C[C@H](O)[C@H]2C(=O)O [Amphotericin B, amphotericin B]
- Average percentage of death of stationary phase promastigote forms, L. amazonensis [1]: 40.06 ± 1.17%
- Average percentage of death of stationary phase promastigote forms, L. chagasi [2]: 35.12 ± 2.61%
- Average percentage of death of stationary phase promastigote forms, L. major [3]: 42.51 ± 2.00%
